Test system: Bovine pluripotent stem cells (PSCs)
Experiment: Immunofluorescence staining of Myosin heavy chain (MF-20 antibody) after total of 11 days of differentiation
Format: cell-based
Conditions: 3D suspension 4 days with factors (CHIR 10 μM; Activin A 20 ng/ml or TGFβ 2 ng/ml), then 7 days 2D serum-free without factors; FIG. 3A-3C
Method: Bovine skeletal muscle cells in 2D culture were subjected to immunofluorescence analysis as following: The cells were fixed using 4% Paraformaldehyde (PFA; […] Nuclei were stained using […] of DAPI (Sigma). The imaging was performed using EVOS FL Auto 2 Fluorescent Microscopy (ThermoFisher). Bovine pluripotent stem cells (PSCs) were grown in 2D and/or 3D culture. […] The suspension culture conditions (“3D culture conditions”) include ultra-low adherent (ULA) 6-well plate (Corning) placed at 38.5° C. under 5% CO2 and humidity of >75% under rotation. Medium was refreshed using the skeletal Muscle Precursor medium (without RI) and the formed aggregates were allowed to differentiate for a total of 4 days. The aggregates comprising skeletal muscle committed cells were collected and seeded on in a tissue culture Vitronectin (0.005 mg/ml) pre-coated plate (“2D conditions”) in serum free growth medium. […] Medium was refreshed using the skeletal Muscle Precursor medium (without RI) and the formed aggregates were allowed to differentiate for a total of 4 days. After 4 days, the cells comprising skeletal muscle committed cells were collected and seeded in a 2D culture conditions as described for the aggregate obtained from 3D culture conditions described above.

Cc1cnc(-c2cnc(NCCNc3ccc(C#N)cn3)nc2-c2ccc(Cl)cc2Cl)[nH]1 [CHIR-99021, 6-[[2-[[4-(2,4-Dichlorophenyl)-5-(5-methyl-1H-imidazol-2-yl)-2-pyrimidinyl]amino]ethyl]amino]-3-pyridinecarbonitrile]
Myosin heavy chain positive (skeletal muscle) cells by immunofluorescence: no Myosin positive cells
